Source: US6087355A, “Cephalosporin antibiotics” (Microcide Pharmaceuticals, Inc., priority 1996, dated 2000)
Structures can show the parent of a compound that is named as a salt.

Legend:
[1] = system: S. aureus Spain #356(Meth^R); assay: In vitro MIC, agar dilution; format: cell-based; conditions: Staphylococcus aureus, read-out: minimum inhibitory concentration (MIC)
Method in brief: (§1)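 Agar dilution on Mueller-Hinton plates: spots of roughly 10^4 cfu of log-phase bacteria were placed on agar containing serial two-fold compound dilutions, from a 128 μg/mL top working level to ≤0.25 μg/mL, each in duplicate. After 16-20 hours at 35-36° C, the lowest growth-inhibiting concentration was taken as the MIC.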

[2] = system: S. haemolyticus 05(Meth^R); assay: In vitro MIC, agar dilution; format: cell-based; conditions: Staphylococcus haemolyticus, read-out: minimum inhibitory concentration (MIC)
Method in brief: as §1

E. faecalis ATCC 29212 = assay: In vitro MIC, agar dilution; format: cell-based; conditions: Enterococcus faecalis, ATCC29212, read-out: minimum inhibitory concentration (MIC)
Method in brief: as §1

S. aureus ATCC 29213 = assay: In vitro MIC, agar dilution; format: cell-based; conditions: Staphylococcus aureus, ATCC29213, read-out: minimum inhibitory concentration (MIC)
Method in brief: as §1

[3] = system: S. aureus ATCC 33593(Meth^R); assay: In vitro MIC, agar dilution; format: cell-based; conditions: Staphylococcus aureus, ATCC33593, read-out: minimum inhibitory concentration (MIC)
Method in brief: as §1

E. faecium A491(Amp^R) = assay: In vitro MIC, agar dilution; format: cell-based; conditions: Enterococcus faecium, read-out: minimum inhibitory concentration (MIC)
Method in brief: as §1

E. coli ATCC 25992 = assay: In vitro MIC, agar dilution; format: cell-based; conditions: Escherichia coli, ATCC25992, read-out: minimum inhibitory concentration (MIC)
Method in brief: as §1

P. aeruginosa ATCC 27853 = assay: In vitro MIC, agar dilution; format: cell-based; conditions: Pseudomonas aeruginosa, ATCC27853, read-out: minimum inhibitory concentration (MIC)
Method in brief: as §1

[4] = system: S. aureus PC1(Meth^S)(lac^+); assay: In vitro MIC, agar dilution; format: cell-based; conditions: Staphylococcus aureus, read-out: minimum inhibitory concentration (MIC)
Method in brief: as §1

[5] = system: S. aureus 76(Meth^R)(lac^+); assay: In vitro MIC, agar dilution; format: cell-based; conditions: Staphylococcus aureus, read-out: minimum inhibitory concentration (MIC)
Method in brief: as §1

E. faecium ATCC 35667 = assay: In vitro MIC, agar dilution; format: cell-based; conditions: Enterococcus faecium, ATCC35667, read-out: minimum inhibitory concentration (MIC)
Method in brief: as §1

E. faecalis VanB(Van^R) = assay: In vitro MIC, agar dilution; format: cell-based; conditions: Enterococcus faecalis, read-out: minimum inhibitory concentration (MIC)
Method in brief: as §1

[6] = system: S. aureus ATCC 13709(Meth^S); assay: In vitro MIC, agar dilution; format: cell-based; conditions: Staphylococcus aureus, ATCC13709, S. aureus ATCC 13709(Meth^S); read-out: minimum inhibitory concentration (MIC)
Method in brief: as §1

E. faecium VanA(Van^R) = assay: In vitro MIC, agar dilution; format: cell-based; conditions: Enterococcus faecium, read-out: minimum inhibitory concentration (MIC)
Method in brief: as §1

[7] = system: S. aureus Col(Meth^R)(lac^-); assay: In vitro MIC, agar dilution; format: cell-based; conditions: Staphylococcus aureus, read-out: minimum inhibitory concentration (MIC)
Method in brief: (§2)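 Two-fold dilutions (128 to ≤0.25 μg/mL, in duplicate) were poured into Mueller-Hinton agar. Log-phase broth cultures were spot-inoculated at about 10^4 cfu per spot and incubated 35-36°C for 16-20 hours; the MIC was the lowest concentration inhibiting growth. Col is a high-level PBP2a producer; Col 8A is its isogenic PBP2a-lacking partner.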

[8] = system: S. aureus Col8A(Meth^S)(lac^-); assay: In vitro MIC, agar dilution; format: cell-based; conditions: Staphylococcus aureus; S. aureus Col8A(Meth^S)(lac^-); read-out: minimum inhibitory concentration (MIC)
Method in brief: as §2

[9] = system: S. aureus strain ATCC 13709 (methicillin-susceptible); assay: Murine model for lethal bacteremic peritonitis; format: in vivo, female Swiss-Webster mice; conditions: Staphylococcus aureus, ATCC13709, SC, 72 h; for responders at 0.3125 mg/kg / responders at 0.625 mg/kg / responders at 2.5 mg/kg / responders at 5 mg/kg: read-out: Survivors; for responders at 1.25 mg/kg: read-out: Survivors (converted); for ED50: two equal doses, IP challenge, read-out: ED50
Method in brief: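 Female Swiss-Webster mice were challenged IP with an LD100 inoculum in 7% hog gastric mucin, then given test drug subcutaneously in twofold increments (0.01–512 mg/kg) as two equal doses at challenge and 2 h later, 10 mice per group. Survival was scored at 72 h; PD50 (total mg/kg) was derived by probit.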

SMILES	MIC [1] [µg/mL]	MIC [2] [µg/mL]	MIC (E. faecalis ATCC 29212) [µg/mL]	MIC (S. aureus ATCC 29213) [µg/mL]	MIC [3] [µg/mL]	MIC (E. faecium A491(Amp^R)) [µg/mL]	MIC (E. coli ATCC 25992) [µg/mL]	MIC (P. aeruginosa ATCC 27853) [µg/mL]	MIC [4] [µg/mL]	MIC [5] [µg/mL]	MIC (E. faecium ATCC 35667) [µg/mL]	MIC (E. faecalis VanB(Van^R)) [µg/mL]	MIC [6] [µg/mL]	MIC (E. faecium VanA(Van^R)) [µg/mL]	MIC [7] [µg/mL]	MIC [8] [µg/mL]	responders at 0.3125 mg/kg [9] [%]	responders at 0.625 mg/kg [9] [%]	responders at 1.25 mg/kg [9] [%]	responders at 2.5 mg/kg [9] [%]	also measured
Nc1nc(/C(=N/O)C(=O)N[C@@H]2C(=O)N3C(C(=O)O)=C(Sc4ccncc4CSC4CCNC4)CS[C@H]23)cs1 (stereo partly drawn) [Cmpd 17, (7R)-7-[(Z)-2-(aminothiazol-4-yl)-2-(hydroxyimino)acetamido]-3-[3-(3-pyrrolidinothiomethyl)pyrid-4-ylthio]-3-cephem-4-carboxylate, trifluoroacetic acid salt]	4	8	0.13	0.25	2	> 32	2	> 32	0.25	4	1	0.5	0.25	0.25	2	0.5	20	20	50	30	responders at 5 mg/kg [9]: 60%; ED50 [9]: 3.59 mg/kg
NCCCSCc1cnccc1SC1=C(C(=O)O)N2C(=O)[C@@H](NC(=O)/C(=N\O)c3nc(N)sc3Cl)[C@H]2SC1 [Cmpd 27, (7R)-7-[(Z)-2-(2-amino-5-chlorothiazol-4-yl)-2-(hydroxyimino)acetamido]-3-[3-(3-aminopropyl)thiomethylpyrid-4-ylthio]-3-cephem-4-carboxylate, trifluoroacetic acid salt]	1	2	≤ 0.06	0.25	1	4	8	32	0.25	1	0.25	≤ 0.06	0.13	0.5	0.5	0.13	0	0	20	60	responders at 5 mg/kg [9]: 70%; ED50 [9]: 2.64 mg/kg
CNCCNCCSCc1nnsc1SC1=C(C(=O)O)N2C(=O)[C@@H](NC(=O)/C(=N\OCCF)c3nc(N)sc3Cl)[C@H]2SC1.O=C(O)C(F)(F)F [Cmpd 28, (7R)-7-[(Z)-2-(2-amino-5-chlorothiazol-4-yl)-2-(2-fluoroethoxyimino)acetamido]-3-[(methylaminoethylaminoethylthiomethyl)-1,2,3-thiadiazol-5-ylthio]-3-cephem-4-carboxylate, trifluoroacetic acid salt]	2	4	0.13	1	4	16	2	32	0.5	2	1	0.25	0.13	4	2	0.25	10	10	40	30	responders at 5 mg/kg [9]: 70%; ED50 [9]: 3.01 mg/kg
NCCSc1cnccc1SC1=C(C(=O)O)N2C(=O)[C@@H](NC(=O)/C(=N\O)c3nc(N)sc3Cl)[C@H]2SC1 [Cmpd 30, (7R)-7-[(Z)-2-(2-amino-5-chlorothiazol-4-yl)-2-(hydroxyimino)acetamido]-3-(3-aminoethylthiopyrid-4-ylthio)-3-cephem-4-carboxylate, trifluoroacetic acid salt]	1	1	≤ 0.06	0.25	1	8	8	> 32	≤ 0.25	2	0.5	≤ 0.06	≤ 0.25	1	0.5	0.13	0	20	40	100	responders at 5 mg/kg [9]: 100%; ED50 [9]: 1.14 mg/kg
NCC(O)CSCc1cnccc1SC1=C(C(=O)O)N2C(=O)[C@@H](NC(=O)/C(=N\O)c3nc(N)sc3Cl)[C@H]2SC1 (stereo partly drawn) [Cmpd 32, (7R)-7-[(Z)-2-(2-amino-5-chlorothiazol-4-yl)-2-(hydroxyimino)acetamido]-3-[3-(3-amino-2-hydroxyprop-1-ylthiomethyl)pyrid-4-ylthio]-3-cephem-4-carboxylate, trifluoroacetic acid salt]	2	4	≤ 0.06	0.25	2	8	8	> 32	0.5	2	0.5	0.13	0.13	1	1	0.25	0	10	50	50	responders at 5 mg/kg [9]: 80%; ED50 [9]: 2 mg/kg
CN(C)C(=O)[C@@H](N)CSCc1cnccc1SC1=C(C(=O)O)N2C(=O)[C@@H](NC(=O)/C(=N\O)c3nc(N)sc3Cl)[C@H]2SC1 [Cmpd 58, (7R)-7-[(Z)-2-(2-amino-5-chlorothiazol-4-yl)-2-(hydroxyimino)acetamido]-3-(3-(2R-2-N,N-dimethylcarboxamido-2-aminoethylthiomethyl)pyrid-4-ylthio)-3-cephem-4-carboxylate, trifluoroacetic acid salt]	4	4	0.5	0.5	2	16	8	> 32	1	4	1	0.5	0.5	2	4	0.5	10	10	20	50	responders at 5 mg/kg [9]: 50%; ED50 [9]: 4.1 mg/kg
NC(=O)[C@@H](N)CSCc1cnccc1SC1=C(C(=O)O)N2C(=O)[C@@H](NC(=O)/C(=N\O)c3nc(N)sc3Cl)[C@H]2SC1 [Cmpd 59, (7R)-7-[(Z)-2-(2-amino-5-chlorothiazol-4-yl)-2-(hydroxyimino)acetamido]-3-(3-(2R-2-carboxamido-2-aminoethylthiomethyl)pyrid-4-ylthio)-3-cephem-4-carboxylate, trifluoroacetic acid salt]	4	4	0.5	0.5	2	16	8	> 32	0.5	2	1	0.5	0.13	2	2	0.25	40	60	40	40	responders at 5 mg/kg [9]: 100%; ED50 [9]: 0.81 mg/kg
